From patent US10928382B2, “Microfluidic device and method for analysis of tumor cell microenvironments” (Northeastern University, priority 2014, dated 2021)

Tests used:
[1] = tested on: adriamycin sensitive MCF7 cells; experiment: LIVE/DEAD viability/cytotoxicity assay, adriamycin sensitive MCF7 cell spheroids in microfluidic device (compared with 2D monolayers); format: cell-based
Method: FIGS. 6A and 6B show adriamycin resistant MCF7 cell spheroids at 96 hr incubation without doxorubicin (FIG. 6A) and at 48 hr incubation with 12.8 μM doxorubicin (FIG. 6B). […] FIGS. 6C and 6D show adriamycin sensitive MCF7 cell spheroids at 96 hr incubation without doxorubicin (FIG. 6C) and at 48 hr incubation with 12.8 μM doxorubicin (FIG. 6D).

[2] = tested on: adriamycin resistant MCF7 cells; experiment: LIVE/DEAD viability/cytotoxicity assay, adriamycin resistant MCF7 cell spheroids in microfluidic device (compared with 2D monolayers)
[3] = tested on: co-cultured MCF7 and HS5 cells; experiment: LIVE/DEAD viability assay, co-cultured MCF7 and HS5 fibroblast cell spheroids in microfluidic device; format: cell-based; conditions: 3D spheroids, doxorubicin 3200 nM and 12800 nM, FIG. 7D
[4] = 3D spheroids, doxorubicin 800 nM to 12800 nM, FIG. 7C

## COc1cccc2c1C(=O)c1c(O)c3c(c(O)c1C2=O)C[C@@](O)(C(=O)CO)C[C@@H]3O[C@H]1C[C@H](N)[C@H](O)[C@H](C)O1 [doxorubicin]
[1]; 3D spheroids, 12.8 μM doxorubicin, 48 hr incubation, FIG. 6D vs 6B
  susceptibility to doxorubicin (red fluorescent nuclei staining) versus adriamycin resistant cells: more susceptible to doxorubicin than the adriamycin resistant cells
[1]; [4]
  survival rate in spheroids: high and comparable survival rates
[1]; doxorubicin 1600 nM to 12800 nM, p<0.05, FIG. 7B
  cell viability, 2D monolayers versus 3D spheroids: statistically significant difference in cell viability
[2]; 12.8 μM doxorubicin, p<0.05, cells more susceptible in 2D than 3D, FIG. 7A
  cell viability, 2D monolayers versus 3D spheroids: statistically significant difference in cell viability
[2]; 3D spheroids, 12.8 μM doxorubicin, 48 hr incubation, FIG. 6B
  cell toxicity (red fluorescence, LIVE/DEAD assay): cell toxicity
[2]; [4]
  survival rate in spheroids: high and comparable survival rates
[3]
  overall cell survival rate in response to doxorubicin, with fibroblasts versus MCF7 adriamycin sensitive spheroids alone: significant increase in the overall cell survival rate
